Species: Rattus norvegicus
Assay: DrugMatrix - Regimen: Daily Repeat
Type: toxicity, organism-based, Sprague-Dawley
Parameters: regimen Daily Repeat, gender Male, age 6-8 weeks
Conditions: in vivo, sc, route subcutaneous, […]; for ABSOLUTE BASOPHIL / ABSOLUTE EOSINOPHIL / ABSOLUTE LYMPHOCYTE / ABSOLUTE MONOCYTE / ABSOLUTE SEGMENTED NEUTROPHIL / BASOPHIL / EOSINOPHIL / ERYTHROCYTE COUNT / HEMATOCRIT / HEMOGLOBIN / LEUKOCYTE COUNT / LYMPHOCYTE / MEAN CORPUSCULAR HEMOGLOBIN / MEAN CORPUSCULAR HEMOGLOBIN CONCENTRATION / MEAN CORPUSCULAR VOLUME / MONOCYTE / NEUTROPHIL / NUCLEATED RED BLOOD CELLS / PLATELET COUNT: tissue Blood; for ALANINE AMINOTRANSFERASE / ALBUMIN / ALKALINE PHOSPHATASE / ASPARTATE AMINOTRANSFERASE / BLOOD UREA NITROGEN / CARBON DIOXIDE / CHLORIDE / CHOLESTEROL / CREATINE PHOSPHOKINASE / CREATININE / GLUCOSE / LACTATE DEHYDROGENASE / LIPASE / PHOSPHORUS / POTASSIUM / SODIUM / TOTAL BILIRUBIN / TOTAL PROTEIN / URIC ACID: tissue Plasma
[1] = 0 mg/kg, 72 h, dose level Control, time 3 day
[2] = 0 mg/kg, 120 h, dose level Control, time 5 day
[3] = 56 mg/kg, 72 h, dose level High, time 3 day

SMILES: C[C@]12CCC(=O)C=C1CC[C@@H]1[C@@H]2[C@@H](O)C[C@@]2(C)[C@H]1CC[C@]2(O)C(=O)CO [HYDROCORTISONE]
- ABSOLUTE BASOPHIL [1]: 0 CELLS/uL
- ABSOLUTE EOSINOPHIL [1]: 0 CELLS/uL
- ABSOLUTE LYMPHOCYTE [1]: 10887 CELLS/uL
- ABSOLUTE MONOCYTE [1]: 56 CELLS/uL
- ABSOLUTE SEGMENTED NEUTROPHIL [1]: 1057 CELLS/uL
- BASOPHIL [1]: 0%
- EOSINOPHIL [1]: 0%
- ERYTHROCYTE COUNT [1]: 5.31 x10E6/uL
- HEMATOCRIT [1]: 33.78%
- HEMOGLOBIN [1]: 13.4 G/DL
- LEUKOCYTE COUNT [1]: 12 x10E3/uL
- LYMPHOCYTE [1]: 91.17%
- MEAN CORPUSCULAR HEMOGLOBIN [1]: 25.25 pg
- MEAN CORPUSCULAR HEMOGLOBIN CONCENTRATION [1]: 39.65 G/DL
- MEAN CORPUSCULAR VOLUME [1]: 63.65 fL
- MONOCYTE [1]: 0.5%
- NEUTROPHIL [1]: 8.33%
- NUCLEATED RED BLOOD CELLS [1]: 0 /100WBC
- PLATELET COUNT [1]: 1142 x10E3/uL
- ALANINE AMINOTRANSFERASE [1]: 57.17 u/L
- ALBUMIN [1]: 4.28 G/DL
- ALKALINE PHOSPHATASE [1]: 425.83 u/L
- ASPARTATE AMINOTRANSFERASE [1]: 93.83 u/L
- BLOOD UREA NITROGEN [1]: 14.17 mg/dL
- CARBON DIOXIDE [1]: 33.5 mmol/L
- CHLORIDE [1]: 100 MEQ/L
- CHOLESTEROL [1]: 70.33 mg/dL
- CREATINE PHOSPHOKINASE [1]: 438.67 u/L
- CREATININE [1]: 0.19 mg/dL
- GLUCOSE [1]: 138.5 mg/dL
- LACTATE DEHYDROGENASE [1]: 190.17 u/L
- LIPASE [1]: 9.83 u/L
- PHOSPHORUS [1]: 11.05 mg/dL
- POTASSIUM [1]: 6.59 MEQ/L
- SODIUM [1]: 143.58 MEQ/L
- TOTAL BILIRUBIN [1]: 0.22 mg/dL
- TOTAL PROTEIN [1]: 6.15 G/DL
- URIC ACID [1]: 1.3 mg/dL
- ABSOLUTE BASOPHIL [2]: 0 CELLS/uL
- ABSOLUTE EOSINOPHIL [2]: 91.17 CELLS/uL
- ABSOLUTE LYMPHOCYTE [2]: 11847.67 CELLS/uL
- ABSOLUTE MONOCYTE [2]: 172.83 CELLS/uL
- ABSOLUTE SEGMENTED NEUTROPHIL [2]: 1105 CELLS/uL
- BASOPHIL [2]: 0%
- EOSINOPHIL [2]: 0.67%
- ERYTHROCYTE COUNT [2]: 5.35 x10E6/uL
- HEMATOCRIT [2]: 33.65%
- HEMOGLOBIN [2]: 13.42 G/DL
- LEUKOCYTE COUNT [2]: 13.22 x10E3/uL
- LYMPHOCYTE [2]: 89.83%
- MEAN CORPUSCULAR HEMOGLOBIN [2]: 25.12 pg
- MEAN CORPUSCULAR HEMOGLOBIN CONCENTRATION [2]: 39.9 G/DL
- MEAN CORPUSCULAR VOLUME [2]: 63 fL
- MONOCYTE [2]: 1.33%
- NEUTROPHIL [2]: 8.17%
- NUCLEATED RED BLOOD CELLS [2]: 0 /100WBC
- PLATELET COUNT [2]: 1347.83 x10E3/uL
- ALANINE AMINOTRANSFERASE [2]: 50 u/L
- ALBUMIN [2]: 4.1 G/DL
- ALKALINE PHOSPHATASE [2]: 329.17 u/L
- ASPARTATE AMINOTRANSFERASE [2]: 77.17 u/L
- BLOOD UREA NITROGEN [2]: 16.83 mg/dL
- CARBON DIOXIDE [2]: 34.83 mmol/L
- CHLORIDE [2]: 99.83 MEQ/L
- CHOLESTEROL [2]: 75.67 mg/dL
- CREATINE PHOSPHOKINASE [2]: 295.83 u/L
- CREATININE [2]: 0.18 mg/dL
- GLUCOSE [2]: 156.33 mg/dL
- LACTATE DEHYDROGENASE [2]: 166.83 u/L
- LIPASE [2]: 9.83 u/L
- PHOSPHORUS [2]: 12.18 mg/dL
- POTASSIUM [2]: 6.69 MEQ/L
- SODIUM [2]: 143.97 MEQ/L
- TOTAL BILIRUBIN [2]: 0.22 mg/dL
- TOTAL PROTEIN [2]: 6.05 G/DL
- URIC ACID [2]: 1.6 mg/dL
- ABSOLUTE BASOPHIL [3]: 0 CELLS/uL
- ABSOLUTE EOSINOPHIL [3]: 0 CELLS/uL
- ABSOLUTE LYMPHOCYTE [3]: 1706 CELLS/uL
- ABSOLUTE MONOCYTE [3]: 103.33 CELLS/uL
- ABSOLUTE SEGMENTED NEUTROPHIL [3]: 3357.33 CELLS/uL
- BASOPHIL [3]: 0%
- EOSINOPHIL [3]: 0%
- ERYTHROCYTE COUNT [3]: 5.79 x10E6/uL
- HEMATOCRIT [3]: 37.97%
- HEMOGLOBIN [3]: 14.73 G/DL
- LEUKOCYTE COUNT [3]: 5.17 x10E3/uL
- LYMPHOCYTE [3]: 33.33%
- MEAN CORPUSCULAR HEMOGLOBIN [3]: 25.47 pg
- MEAN CORPUSCULAR HEMOGLOBIN CONCENTRATION [3]: 38.87 G/DL
- MEAN CORPUSCULAR VOLUME [3]: 65.57 fL
- MONOCYTE [3]: 2%
- NEUTROPHIL [3]: 64.67%
- NUCLEATED RED BLOOD CELLS [3]: 0.33 /100WBC
- PLATELET COUNT [3]: 1157.67 x10E3/uL
- ALANINE AMINOTRANSFERASE [3]: 124.33 u/L
- ALBUMIN [3]: 5.07 G/DL
- ALKALINE PHOSPHATASE [3]: 509.67 u/L
- ASPARTATE AMINOTRANSFERASE [3]: 177.33 u/L
- BLOOD UREA NITROGEN [3]: 13.67 mg/dL
- CARBON DIOXIDE [3]: 29 mmol/L
- CHLORIDE [3]: 99 MEQ/L
- CHOLESTEROL [3]: 119.33 mg/dL
- CREATINE PHOSPHOKINASE [3]: 250.33 u/L
- CREATININE [3]: 0.17 mg/dL
- GLUCOSE [3]: 360 mg/dL
- LACTATE DEHYDROGENASE [3]: 443.67 u/L
- LIPASE [3]: 10.67 u/L
- PHOSPHORUS [3]: 10.63 mg/dL
- POTASSIUM [3]: 5.68 MEQ/L
- SODIUM [3]: 144.93 MEQ/L
- TOTAL BILIRUBIN [3]: 0.17 mg/dL
- TOTAL PROTEIN [3]: 6.97 G/DL
- URIC ACID [3]: 1.43 mg/dL

Reference: ChEMBL document CHEMBL3885881, “DrugMatrix”
